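Results reflect a 48-hour exposure of cells in 96-well plates to compound at five concentrations. TGI: concentration producing complete growth inhibition.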
Key:
Experiment in all cases: growth of human tumour cells (NCI), 48 h
SF-295 CNS = tested on: SF-295 CNS
OVCAR-3 ovarian = tested on: OVCAR-3 ovarian
HCT-116 colon = tested on: HCT-116 colon
SF-539 CNS = tested on: SF-539 CNS
SNB-75 CNS = tested on: SNB-75 CNS
TK-10 renal = tested on: TK-10 renal
RPMI-8226 leukemia = tested on: RPMI-8226 leukemia
SK-OV-3 ovarian = tested on: SK-OV-3 ovarian
786-0 renal = tested on: 786-0 renal
MDA-N = tested on: MDA-N
LOX IMVI melanoma = tested on: LOX IMVI melanoma
K-562 leukemia = tested on: K-562 leukemia
NCI/ADR-RES ovarian = tested on: NCI/ADR-RES ovarian
COLO 205 colon = tested on: COLO 205 colon
SK-MEL-2 melanoma = tested on: SK-MEL-2 melanoma
UACC-257 melanoma = tested on: UACC-257 melanoma
SW-620 colon = tested on: SW-620 colon
SK-MEL-28 melanoma = tested on: SK-MEL-28 melanoma
SNB-19 CNS = tested on: SNB-19 CNS
A498 renal = tested on: A498 renal
OVCAR-5 ovarian = tested on: OVCAR-5 ovarian
DU-145 prostate = tested on: DU-145 prostate
HOP-62 NSCLC = tested on: HOP-62 NSCLC
HS 578T breast = tested on: HS 578T breast
SR leukemia = tested on: SR leukemia
SF-268 CNS = tested on: SF-268 CNS
HT29 colon = tested on: HT29 colon
MALME-3M melanoma = tested on: MALME-3M melanoma
A549 NSCLC = tested on: A549 NSCLC
MDA-MB-231 breast = tested on: MDA-MB-231 breast
BT-549 breast = tested on: BT-549 breast
HOP-92 NSCLC = tested on: HOP-92 NSCLC
HCT-15 colon = tested on: HCT-15 colon
M14 melanoma = tested on: M14 melanoma
IGROV1 ovarian = tested on: IGROV1 ovarian
MCF7 breast = tested on: MCF7 breast
T-47D breast = tested on: T-47D breast
ACHN renal = tested on: ACHN renal
NCI-H226 lung = tested on: NCI-H226 lung
EKVX NSCLC = tested on: EKVX NSCLC
MOLT-4 leukemia = tested on: MOLT-4 leukemia
KM12 colon = tested on: KM12 colon
OVCAR-4 ovarian = tested on: OVCAR-4 ovarian
NCI-H460 lung = tested on: NCI-H460 lung
HL-60(TB) leukemia = tested on: HL-60(TB) leukemia
CCRF-CEM leukemia = tested on: CCRF-CEM leukemia
NCI-H23 lung = tested on: NCI-H23 lung
U251 CNS = tested on: U251 CNS
PC-3 prostate = tested on: PC-3 prostate
SK-MEL-5 melanoma = tested on: SK-MEL-5 melanoma
NCI-H522 lung = tested on: NCI-H522 lung
RXF 393 renal = tested on: RXF 393 renal
SN12C renal = tested on: SN12C renal
MDA-MB-435 = tested on: MDA-MB-435
OVCAR-8 ovarian = tested on: OVCAR-8 ovarian
CAKI-1 renal = tested on: CAKI-1 renal

Measured: TGI

Cc1nc2sc3cccc(Cl)c3n2c(=O)c1N=Nc1ccc(Cl)cc1
67.6 µM: A498 renal
> 100 µM: SF-295 CNS | OVCAR-3 ovarian | HCT-116 colon | SF-539 CNS | SNB-75 CNS | TK-10 renal | RPMI-8226 leukemia | SK-OV-3 ovarian | 786-0 renal | MDA-N | LOX IMVI melanoma | K-562 leukemia | NCI/ADR-RES ovarian | COLO 205 colon | SK-MEL-2 melanoma | UACC-257 melanoma | SW-620 colon | SK-MEL-28 melanoma | SNB-19 CNS | OVCAR-5 ovarian | DU-145 prostate | HOP-62 NSCLC | HS 578T breast | SR leukemia | SF-268 CNS | HT29 colon | MALME-3M melanoma | A549 NSCLC | MDA-MB-231 breast | BT-549 breast | HOP-92 NSCLC | HCT-15 colon | M14 melanoma | IGROV1 ovarian | MCF7 breast | T-47D breast | ACHN renal | NCI-H226 lung | EKVX NSCLC | MOLT-4 leukemia | KM12 colon | OVCAR-4 ovarian | NCI-H460 lung | HL-60(TB) leukemia | CCRF-CEM leukemia | NCI-H23 lung | U251 CNS | PC-3 prostate | SK-MEL-5 melanoma | NCI-H522 lung | RXF 393 renal | SN12C renal | MDA-MB-435 | OVCAR-8 ovarian | CAKI-1 renal

Source: PubChem BioAssay (NCI)
